Measurements published in patent US9457033B2, “Steroid alkaloids and uses thereof as antimicrobial agents against electron transport-deficient microbes and as potentiators for antimicrobial agents against pathogenic bacteria” (priority 2011, dated 2016).
Converted amounts (≈) assume the structure as drawn. Where two headings read alike, the source gives them in different places.

Tests used:
[1] = tested on: S. aureus 8325-4; test: MIC, microdilution in CAMHB 24 h; type: cell-based, Staphylococcus aureus; conditions: 8325-4
[2] = tested on: S. aureus Newbould; test: MIC, microdilution in CAMHB 24 h; type: cell-based, Staphylococcus aureus; conditions: Newbould
[3] = tested on: S. aureus ATCC BAA-41; test: MIC, microdilution in CAMHB 24 h; type: cell-based, Staphylococcus aureus
[4] = tested on: S. aureus Sa228c; test: MIC, microdilution in CAMHB 24 h; type: cell-based, Staphylococcus aureus; conditions: for MIC: Staphylococcus aureus, SA228C
[5] = tested on: S. aureus CF2A-L; test: MIC, microdilution in CAMHB 24 h; type: cell-based; conditions: CF2A-L
[6] = tested on: S. aureus CF8E-L; test: MIC, microdilution in CAMHB 24 h; type: cell-based, Staphylococcus aureus; conditions: CF8E-L
[7] = tested on: all tested S. aureus strains; test: Average potentiation of aminoglycoside MIC by tomatidine (FIGS. 6, 7); type: cell-based, Staphylococcus aureus; conditions: tomatidine at 8 μg/ml
[8] = tested on: S. epidermidis ATCC 12228; test: MIC, microdilution, with or without tomatidine; conditions: for MIC: Staphylococcus epidermidis
[9] = tested on: S. epidermidis ATCC 35984; test: MIC, microdilution, with or without tomatidine; conditions: for MIC: Staphylococcus epidermidis
[10] = tested on: S. haemolyticus sh022; test: MIC, microdilution, with or without tomatidine; conditions: for MIC: Staphylococcus haemolyticus
[11] = tested on: S. haemolyticus sh032; test: MIC, microdilution, with or without tomatidine; conditions: for MIC: Staphylococcus haemolyticus
[12] = tested on: S. hominis ssp008c; test: MIC, microdilution, with or without tomatidine; conditions: for MIC: Staphylococcus hominis, SSP008C
[13] = tested on: S. hominis sho23; test: MIC, microdilution, with or without tomatidine; conditions: for MIC: Staphylococcus hominis
[14] = tested on: S. aureus ATCC 29213; test: MIC, microdilution in BHI 48 h (Examples 1, 3); type: cell-based, Staphylococcus aureus
[15] = tested on: S. aureus Newbould (normal strain); test: MIC, microdilution in BHI 48 h; type: cell-based, Staphylococcus aureus; conditions: Newbould, normal strain
[16] = tested on: S. aureus SCV NewbouldΔhemB; test: MIC, microdilution in BHI 48 h; type: cell-based, Staphylococcus aureus; conditions: NewbouldΔhemB, SCV
[17] = tested on: S. aureus CF07-L (normal strain); test: MIC, microdilution in BHI 48 h (Examples 1, 3); type: cell-based, Staphylococcus aureus
[18] = tested on: S. aureus SCV CF07-S; test: MIC, microdilution in BHI 48 h (Examples 1, 3); type: cell-based, Staphylococcus aureus
[19] = tested on: S. aureus CF1A-L (normal strain); test: MIC, microdilution in BHI 48 h; type: cell-based, Staphylococcus aureus; conditions: CF1A-L, normal strain
[20] = tested on: S. aureus SCV CF1D-S; test: MIC, microdilution in BHI 48 h; type: cell-based, Staphylococcus aureus; conditions: CF1D-S, SCV
[21] = tested on: normal strain CF07-L; test: Broth growth with gentamicin or tomatidine, visually evaluated (FIG. 5A); conditions: gentamicin at 4 μg/ml or tomatidine at 0.12 μg/ml alone, 48 h
[22] = ATCC BAA-41, 8 μg/ml of tomatidine
[23] = S. epidermidis ATCC 12228, 8 μg/ml of tomatidine
[24] = S. epidermidis ATCC 35984, 8 μg/ml of tomatidine
[25] = S. haemolyticus sh022, 8 μg/ml of tomatidine
[26] = S. haemolyticus sh032, 8 μg/ml of tomatidine
[27] = S. hominis ssp008c, 8 μg/ml of tomatidine
[28] = S. hominis sho23, 8 μg/ml of tomatidine

Compound: NC[C@H]1O[C@H](O[C@H]2[C@H](O)[C@@H](O[C@H]3O[C@H](CO)[C@@H](O)[C@H](N)[C@H]3O)[C@H](N)C[C@@H]2N)[C@H](N)C[C@@H]1O [Tobramycin, tobramycin]
- Fold (−TO/+TO) ([1]; 8 μg/ml of tomatidine): 4 fold
- MIC ([1]; Staphylococcus aureus, 83254, 8 μg/ml of tomatidine, read-out: MIC +TO): 0.03 to 0.06 µg/mL (≈ 0.0642 to 0.128 µM)
- MIC ([1]; Staphylococcus aureus, 83254, Laboratory strain, read-out: MIC): 0.12 to 0.25 µg/mL (≈ 0.257 to 0.535 µM)
- MIC ([1]; Staphylococcus aureus, 83254, absence of tomatidine, read-out: MIC −TO): 0.12 to 0.25 µg/mL (≈ 0.257 to 0.535 µM)
- Fold (−TO/+TO) ([2]; 8 μg/ml of tomatidine): 8 fold
- MIC ([2]; Staphylococcus aureus, 8 μg/ml of tomatidine, read-out: MIC +TO): 0.06 to 0.12 µg/mL (≈ 0.128 to 0.257 µM)
- MIC ([2]; Staphylococcus aureus, Cow (mastitis), read-out: MIC): 0.5 to 1 µg/mL (≈ 1.07 to 2.14 µM)
- MIC ([2]; Staphylococcus aureus, absence of tomatidine, read-out: MIC −TO): 0.5 to 1 µg/mL (≈ 1.07 to 2.14 µM)
- Fold (−TO/+TO) [3, 22]: 4 fold
- MIC ([3]; Staphylococcus aureus, ATCC BAA-41 / MRSA, ATCC BAA-41, Human (HA), MRSA, read-out: MIC): 512 µg/mL (≈ 1100 µM)
- MIC ([3]; Staphylococcus aureus, ATCCBAA41, ATCC BAA-41, ant(4′)-Ia, 8 μg/ml of tomatidine, read-out: MIC +TO): 128 µg/mL (≈ 274 µM)
- MIC ([3]; Staphylococcus aureus, ATCCBAA41, ATCC BAA-41, ant(4′)-Ia, absence of tomatidine, read-out: MIC −TO): 512 µg/mL (≈ 1100 µM)
- Fold (−TO/+TO) ([4]; Sa228c, 8 μg/ml of tomatidine): 4-8 fold
- MIC ([4]; read-out: MIC +TO): 128 to 256 µg/mL (≈ 274 to 548 µM)
- MIC ([4]; read-out: MIC −TO): 1020 µg/mL (≈ 2190 µM)
- Fold (−TO/+TO) ([5]; 8 μg/ml of tomatidine): 8-16 fold
- MIC ([5]; Staphylococcus aureus, CF2AL, 8 μg/ml of tomatidine, read-out: MIC +TO): 0.06 to 0.12 µg/mL (≈ 0.128 to 0.257 µM)
- MIC ([5]; Staphylococcus aureus, CF2AL, Human (CF lungs), read-out: MIC): 1 µg/mL (≈ 2.14 µM)
- MIC ([5]; Staphylococcus aureus, CF2AL, absence of tomatidine, read-out: MIC −TO): 1 µg/mL (≈ 2.14 µM)
- Fold (−TO/+TO) ([6]; 8 μg/ml of tomatidine): 4 fold
- MIC ([6]; Staphylococcus aureus, CF8EL, 8 μg/ml of tomatidine, read-out: MIC +TO): 0.25 µg/mL (≈ 0.535 µM)
- MIC ([6]; Staphylococcus aureus, CF8EL, Human (CF lungs), read-out: MIC): 1 µg/mL (≈ 2.14 µM)
- MIC ([6]; Staphylococcus aureus, CF8EL, absence of tomatidine, read-out: MIC −TO): 1 µg/mL (≈ 2.14 µM)
- average increase of antibacterial activity [7]: 8±3 fold
- Fold (−TO/+TO) [8, 23]: 2 fold
- MIC ([8]; ATCC12228, read-out: MIC +TO): 0.06 µg/mL (≈ 0.128 µM)
- MIC ([8]; ATCC12228, read-out: MIC −TO): 0.12 µg/mL (≈ 0.257 µM)
- Fold (−TO/+TO) [9, 24]: 8 fold
- MIC ([9]; ATCC35984, read-out: MIC +TO): 2 µg/mL (≈ 4.28 µM)
- MIC ([9]; ATCC35984, read-out: MIC −TO): 16 µg/mL (≈ 34.2 µM)
- Fold (−TO/+TO) [10, 25]: 8 fold
- MIC ([10]; SH022, read-out: MIC +TO): 4 µg/mL (≈ 8.56 µM)
- MIC ([10]; SH022, read-out: MIC −TO): 32 µg/mL (≈ 68.4 µM)
- Fold (−TO/+TO) [11, 26]: 16 fold
- MIC ([11]; SH032, read-out: MIC +TO): 2 µg/mL (≈ 4.28 µM)
- MIC ([11]; SH032, read-out: MIC −TO): 32 µg/mL (≈ 68.4 µM)
- Fold (−TO/+TO) [12, 27]: 4 fold
- MIC ([12]; read-out: MIC +TO): 8 µg/mL (≈ 17.1 µM)
- MIC ([12]; read-out: MIC −TO): 32 µg/mL (≈ 68.4 µM)
- Fold (−TO/+TO) [13, 28]: 4 fold
- MIC ([13]; SHO23, read-out: MIC +TO): 1 µg/mL (≈ 2.14 µM)
- MIC ([13]; SHO23, read-out: MIC −TO): 4 µg/mL (≈ 8.56 µM)

Compound: gentamicin
- MIC ([14]; ATCC 29213 + HQNO at 20 μg/ml): 4 µg/mL
- MIC ([14]; ATCC 29213, without HQNO): 1 µg/mL
- MIC in presence of CCCP ([14]; ATCC 29213, 1 μg/ml CCCP): 4 to 8 µg/mL
- MIC ([14]; ATCC 29213 in BHI): 1 µg/mL
- MIC ([14]; ATCC 29213 in MHBCA): 0.5-1^ μg/ml
- MIC [15]: 0.5-1^ μg/ml
- MIC [16]: 4 to 8 µg/mL
- MIC ([17]; CF07-L + HQNO at 20 μg/ml): 4 µg/mL
- MIC ([17]; CF07-L, normal strain): 1 to 2 µg/mL
- MIC ([17]; CF07-L, without HQNO): 1 to 2 µg/mL
- MIC ([18]; CF07-S + HQNO at 20 μg/ml): 4 to 8 µg/mL
- MIC ([18]; CF07-S, SCV): 8 µg/mL
- MIC ([18]; CF07-S, without HQNO): 8 µg/mL
- MIC [19]: 1 to 2 µg/mL
- MIC [20]: 8 µg/mL
- Fold (−TO/+TO) ([1]; 8 μg/ml of tomatidine): 4 fold
- MIC +TO ([1]; 8 μg/ml of tomatidine): 0.03 to 0.06 µg/mL
- MIC ([1]; Laboratory strain): 0.12 to 0.25 µg/mL
- MIC −TO ([1]; absence of tomatidine): 0.12 to 0.25 µg/mL
- MIC +TO ([2]; 8 μg/ml of tomatidine): 0.06 µg/mL
- MIC ([2]; Cow (mastitis)): 0.5 to 1 µg/mL
- MIC −TO ([2]; absence of tomatidine): 0.5 to 1 µg/mL
- MIC +TO ([3]; ATCC BAA-41, ant(4′)-Ia, 8 μg/ml of tomatidine): 0.12 to 0.25 µg/mL
- MIC −TO ([3]; ATCC BAA-41, ant(4′)-Ia, absence of tomatidine): 0.5 µg/mL
- Fold (−TO/+TO) [3, 22]: 2-4 fold
- MIC ([3]; ATCC BAA-41, Human (HA), MRSA): 0.5 µg/mL
- MIC +TO ([4]; Sa228c, aac(6′)-aph(2″), ant(4′)-Ia, 8 μg/ml of tomatidine): 8 to 16 µg/mL
- Fold (−TO/+TO) ([4]; Sa228c, 8 μg/ml of tomatidine): 8 fold
- Fold (−TO/+TO) ([5]; 8 μg/ml of tomatidine): 4-8 fold
- MIC +TO ([5]; 8 μg/ml of tomatidine): 0.12 to 0.25 µg/mL
- MIC ([5]; Human (CF lungs)): 1 µg/mL
- MIC −TO ([5]; absence of tomatidine): 1 µg/mL
- Fold (−TO/+TO) ([6]; 8 μg/ml of tomatidine): 2-4 fold
- MIC +TO ([6]; 8 μg/ml of tomatidine): 0.25 to 0.5 µg/mL
- MIC ([6]; Human (CF lungs)): 1 µg/mL
- MIC −TO ([6]; absence of tomatidine): 1 µg/mL
- average increase of antibacterial activity [7]: 8±3 fold
- Fold (−TO/+TO) [8, 23]: 2 fold
- MIC +TO [8, 23]: 0.06 µg/mL
- MIC −TO ([8]; S. epidermidis ATCC 12228, absence of tomatidine): 0.12 µg/mL
- Fold (−TO/+TO) [9, 24]: 4 fold
- MIC +TO [9, 24]: 8 µg/mL
- MIC −TO ([9]; S. epidermidis ATCC 35984, absence of tomatidine): 32 µg/mL
- Fold (−TO/+TO) [10, 25]: 4 fold
- MIC +TO [10, 25]: 4 µg/mL
- MIC −TO ([10]; S. haemolyticus sh022, absence of tomatidine): 16 µg/mL
- Fold (−TO/+TO) [11, 26]: 8 fold
- MIC +TO [11, 26]: 8 µg/mL
- MIC −TO ([11]; S. haemolyticus sh032, absence of tomatidine): 64 µg/mL
- Fold (−TO/+TO) [12, 27]: 4 fold
- MIC +TO [12, 27]: 2 µg/mL
- MIC −TO ([12]; S. hominis ssp008c, absence of tomatidine): 8 µg/mL
- Fold (−TO/+TO) [13, 28]: 2 fold
- MIC +TO [13, 28]: 0.06 µg/mL
- MIC −TO ([13]; S. hominis sho23, absence of tomatidine): 0.12 µg/mL
- growth, visually evaluated [21]: inhibits the growth
